Measurements reported in US10308631B2, “Selective anti-cancer compounds” (NATIONAL UNIVERSITY OF SINGAPORE, priority 2015, dated 2019).

Key:
[1] = test system: mitotic marker phospho-histone H3 at serine 10 (pH3 (Ser10)) in transformed BJ cells; assay: Immunoblot analysis of mitotic marker pH3 (Ser10), derivatives of Compound 1; type: cell-based; conditions: Homo sapiens, band intensities pH3(Ser10)/β-actin vs DMSO control, 24 h
Procedure: (§1) FIG. 4 compares the ability of Compound 1 (a131), and various derivatives thereof (referred to using their code numbers for brevity; the designated chemical compound for each code number is provided in the chemical examples section below), to inhibit autophagy and/or mitosis. BJ transformed cells were treated with 5 μM of various Compounds as shown, for 24 h. Cells were harvested and total lysates were analysed by detecting the mitotic marker phospho-histone H3 at serine 10 (pH3 (Ser10)) and the autophagosome marker LC3. Antibodies raised against β-actin were used as an internal loading control.
(§2) The ability of Compound 1 to inhibit lysosome function was examined using immunoblotting. HeLa cervical cancer cells were cultured in Dulbecco's modified Eagle's medium (DMEM) supplemented with 10% Fetal Bovine Serum (FBS, Thermo Scientific). The HeLa cells were treated with different concentrations of Compound 1 (0.625, 1.25, 2.5, 5 and 10 μM, dimethyl sulfoxide (DMSO, Kanto Kagaku)), chloroquine (CQ) (1.25, 2.5, 10, 50 and 100 μM, DMSO) or DMSO for 6 h. Then, the treated cells were harvested and lysed in 1% triton lysis buffer [25 mM Tris HCl (pH8.0), 150 mM NaCl, 1% triton-X100, 1 mM dithiothreitol (DTT), protease inhibitor mix (Complete Mini, Roche) and phosphatase inhibitor (PhosphoStop, Roche)]. The proteins in total lysates were boiled with sample buffer (60 mM Tris-HCl (pH 6.8), 25% glycerol, 2% SDS, 14.4 mM 2-mercaptoethanol, 0.1% bromophenol blue) and resolved by 14% tris-glycine sodium dodecyl sulfate polyacrylamide gel electrophoresis (SDS-PAGE) and subjected to immunoblot analysis.
(§3) Defects in lysosome function and inhibition of autophagy can be measured by accumulation of LC3-phosphatidylethanolamine conjugated non-soluble form (LC3-II), which are converted from soluble LC3-I. Thus, antibodies raised against LC3 (Cell Signaling, Cat#4108) were used to determine lysosomal function and integrity. Antibodies raised against phosphorylated histone H3 at serine 10 residue (pH3) (Cell signaling, Cat#3377) were used as the marker for mitotic dysfunction and arrest. Antibodies raised against β-actin (Millipore, Cat#MAB1501) were used as an internal loading control. The inhibitory ability of Compound 1 was also quantitatively compared to CQ.
(§4) Derivatives of Compound 1 were tested to see if they had similar dual activity, or presented only one of the activities of Compound 1. The protocol for immunoblot analysis described in Biology Example 1 was applied to the additional indicated compounds.
(§5) Activities of compounds were determined by two independent experiments. First, Compounds were classified according to the intensity of increase in each of the mitotic marker phospho-histone H3 at serine 10 (pH3 (Ser 10)) and the autophagosome marker LC3, respectively, at 1.25 μM, when compared with 1.25 μM Compound 1 (a131).
(§6) Compounds classified “++” on either “mitosis” or “inhibits lysosome” show similar increase in each of the mitotic marker phospho-histone H3 at serine 10 (pH3 (Ser10)) and the autophagosome marker LC3, respectively, at 2.5 μM, when compared with 1.25 μM Compound 1 (a131); and compounds classified “+” on either “mitosis” or “inhibits lysosome” show similar increase in each of the mitotic marker phospho-histone H3 at serine 10 (pH3 (Ser10)) and the autophagosome marker LC3, respectively, at a concentration range of 5-10 μM, when compared with 1.25 μM Compound 1 (a131).
Compounds classified “+/−” on either “mitosis” or “inhibits lysosome” show less increase in each of the mitotic marker phospho-histone H3 at serine 10 (pH3 (Ser10)) and the autophagosome marker LC3, respectively, at a concentration range of 5-10 μM, when compared with 1.25 μM Compound 1 (a131).
Next, the ability of Compound 1 and its derivatives to induce mitotic arrest in transformed BJ cells was quantified as the fold induction of band intensities [pH3(Ser10)/β-actin] in comparison with DMSO control. […]

[2] = test system: autophagosome marker LC3 (LC3 II/LC3 I) in transformed BJ cells; assay: Immunoblot analysis of autophagosome marker LC3 (lysosome function), derivatives of Compound 1; type: cell-based; conditions: Homo sapiens, band intensities LC3 II/LC3 I vs DMSO control, 24 h
Procedure: as §1, §2, §3, §4, §5, §6
Compounds classified “+/−” on either “mitosis” or “inhibits lysosome” show less increase in each of the mitotic marker phospho-histone H3 at serine 10 (pH3 (Ser10)) and the autophagosome marker LC3, respectively, at a concentration range of 5-10 μM, when compared with 1.25 μM Compound 1 (a131). […]

[3] = test system: pH3 (Ser10) and LC3 in BJ transformed cells; assay: Immunoblot classification of compounds by pH3 and LC3 (FIG. 4); type: cell-based, human; conditions: 5 μM, 24 h
Procedure: as §1, §4

| SMILES | fold induction at 5 µM [1] | fold induction at 5 µM [2] | Inhibition of lysosome function and/or mitosis (FIG. 4) [3] |
| --- | --- | --- | --- |
| COc1ccc2[nH]cc(/C(C#N)=C/c3cccc4cnccc34)c2c1 [Compound 2, (Z)-3-(isoquinolin-5-yl)-2-(5-methoxy-1H-indol-3-yl)acrylonitrile] | 3 | 3.2 | exhibit the dual properties of inhibiting both lysosome function and mitosis |
| N#C/C(=C\c1cncc2cnccc12)c1c[nH]c2ccccc12 [Compound 4, (Z)-2-(1H-indol-3-yl)-3-(2,7-naphthyridin-4-yl)acrylonitrile] | 1.4 | 1 |  |
| N#C/C(=C\c1cccc2cnccc12)c1c[nH]c2c(Br)cccc12 [Compound 5, (Z)-2-(7-bromo-1H-indol-3-yl)-3-(isoquinolin-5-yl)acrylonitrile] | 1.4 | 2.2 |  |
| COc1cccc2c(/C(C#N)=C/c3cccc4cnccc34)c[nH]c12 [Compound 6, (Z)-3-(isoquinolin-5-yl)-2-(7-methoxy-1H-indol-3-yl)acrylonitrile] | 3.9 | 2.7 | exhibit the dual properties of inhibiting both lysosome function and mitosis |
| N#C/C(=C\c1cccc2cnccc12)c1c[nH]c2ccc(Cl)cc12 [Compound 7, (Z)-2-(5-chloro-1H-indol-3-yl)-3-(isoquinolin-5-yl)acrylonitrile] | 1.4 | 2 | inhibit lysosome function only |
| N#C/C(=C\c1cccc2cnccc12)c1c[nH]c2ccc(Br)cc12 [Compound 8, (Z)-2-(5-bromo-1H-indol-3-yl)-3-(isoquinolin-5-yl)acrylonitrile] | 2.1 | 4 | exhibit the dual properties of inhibiting both lysosome function and mitosis |
| COc1ccc2c(/C(C#N)=C/c3cccc4cnccc34)c[nH]c2c1 [Compound 9, (Z)-3-(isoquinolin-5-yl)-2-(6-methoxy-1H-indol-3-yl)acrylonitrile] | 4.3 | 2.6 | exhibit the dual properties of inhibiting both lysosome function and mitosis |
| N#C/C(=C\c1cccc2cnccc12)c1c[nH]c2cc(Br)ccc12 [Compound 10, (Z)-2-(6-bromo-1H-indol-3-yl)-3-(isoquinolin-5-yl)acrylonitrile] | 1.6 | 0.7 |  |
| N#C/C(=C\c1cccc2cnccc12)c1c[nH]c2ccc(OCCC3OCCO3)cc12 [Compound 11, (Z)-2-(5-(2-(1,3-dioxolan-2-yl)ethoxy)-1H-indol-3-yl)-3-(isoquinolin-5-yl)acrylonitrile] | 1 | 0.7 |  |
| COCCOc1ccc2[nH]cc(/C(C#N)=C/c3cccc4cnccc34)c2c1 [Compound 12, (Z)-2-(5-(2-methoxyethoxy)-1H-indol-3-yl)-3-(isoquinolin-5-yl)acrylonitrile] | 1.6 | 3.2 | inhibit lysosome function only |
| N#C/C(=C\c1cccc2cnccc12)c1c[nH]c2ccc(OCCCN3CCCC3)cc12 [Compound 13, (Z)-2-(5-(3-(pyrrolidin-1-yl)propoxy)-1H-indol-3-yl)-3-(isoquinolin-5-yl)acrylonitrile] | 0.9 | 6 | inhibit lysosome function only |
| CC(=O)Nc1ccc2[nH]cc(/C(C#N)=C/c3cccc4cnccc34)c2c1 [Compound 14, N-(3-((Z)-1-cyano-2-(isoquinolin-5-yl)vinyl)-1H-indol-5-yl)acetamide] | 1.2 | 0.5 |  |
| N#C/C(=C\c1cccc2cnccc12)c1c[nH]c2ccc(NC(=O)CCCC[C@@H]3SC[C@@H]4NC(=O)N[C@@H]43)cc12 [Compound 15, N-(3-((Z)-1-cyano-2-(isoquinolin-5-yl)vinyl)-1H-indol-5-yl)-5-((3aS,4S,6aR)-2-oxohexahydro-1H-thieno[3,4-d]imidazol-4-yl)pentanamide] | 1.7 | 1.1 |  |
| CC(=O)NCCC(=O)n1cc(/C(C#N)=C/c2cccc3cnccc23)c2ccccc21 [Compound 17, (Z)—N-(3-(3-(1-cyano-2-(isoquinolin-5-yl)vinyl)-1H-indol-1-yl)-3-oxopropyl)acetamide] | 2.8 | 2.3 |  |
| N#C/C(=C\c1cccc2cnccc12)c1cn(C(=O)CCCC[C@@H]2SC[C@@H]3NC(=O)N[C@@H]32)c2ccccc12 [Compound 18, (Z)-3-(isoquinolin-5-yl)-2-(1-(5-((3aS,4S,6aR)-2-oxohexahydro-1H-thieno[3,4-d]imidazol-4-yl)pentanoyl)-1H-indol-3-yl)acrylonitrile] | 2.2 | 1.7 | inhibit mitosis only |
| CC(C)(C)OC(=O)N1CCC(C(=O)n2cc(/C(C#N)=C/c3cccc4cnccc34)c3ccccc32)CC1 [Compound 19, (Z)-tert-butyl 4-(3-(1-cyano-2-(isoquinolin-5-yl)vinyl)-1H-indole-1-carbonyl)piperidine-1-carboxylate] | 16.2 | 5.2 | exhibit the dual properties of inhibiting both lysosome function and mitosis |
| CC(C)(C)OC(=O)NCCC(=O)n1cc(/C(C#N)=C/c2cccc3cnccc23)c2ccccc21 [Compound 20, (Z)-tert-butyl (3-(3-(1-cyano-2-(isoquinolin-5-yl)vinyl)-1H-indol-1-yl)-3-oxopropyl)carbamate] | 4.8 | 3.9 | exhibit the dual properties of inhibiting both lysosome function and mitosis |
| N#C/C(=C\c1cccc2cnccc12)c1cn(C(=O)CCN)c2ccccc12 [Compound 22, (Z)-2-(1-(3-aminopropanoyl)-1H-indol-3-yl)-3-(isoquinolin-5-yl)acrylonitrile] | 2.1 | 4.1 | exhibit the dual properties of inhibiting both lysosome function and mitosis |
| C(=C\c1c[nH]c2ccccc12)/c1cccc2cnccc12 [Compound 25, 5-((E)-2-(1H-indol-3-yl)vinyl)isoquinoline] | 1.3 | 5.4 |  |
| O=C(Nc1cccc2cnccc12)c1c[nH]c2ccccc12 [Compound 29, N-(isoquinolin-5-yl)-1H-indole-3-carboxamide] | 1.4 | 0.4 |  |
